# “And” between values parts separate entries of the source, which are not always exact repeats. Equal entries are not always repeated.
# Key:
# [1] = test system: patients with AML who were in first remission after intensive chemotherapy; assay: Phase 3 QUAZAR (CC0486-AML-001) trial of CC-486 maintenance: gene mutation, cytogenetic and MRD status correlated with OS and RFS; format: in vivo, human
# Method: The correlative analyses of gene mutations with clinical indices (overal survival (OS), relapse-free survival (RFS)) were performed in the CC0486-AML-001 study (the QUAZAR® study). […] In this clinical trial, the key enrollment criteria included newly diagnosed de novo or secondary AML patients, with either intermediate or poor risk (based on the 2012 National Comprehensive Cancer Network (NCCN) classification), were 55 years of age or older, who were in complete remission with or without complete blood count recovery. Patients were also those that were not candidates for hematopoietic stem-cell transplantation. See, ClinicalTrials.gov Identifier: NCT01757535, https://clinicaltrials.gov/ct2/show/NCT01757535, the entirety of which is incorporated herein by reference.
# The primary end point was overall survival (OS). Secondary end points included relapse-free survival (RFS).
# Bone marrow mononuclear cell (BMMC) DNA was isolated from patients at diagnoses (before consideration for study enrollment) and specific gene mutations (NPM1, FLT3 ITD, FLT3 TKD, CEBPA, MLL, P53, cKIT, NRAS) were determined by investigator report or retrospectively identified by central sequencing for available samples. Cytogenetic risk classification was performed according to the 2012 NCCN Guidelines (source: National Comprehensive Cancer Network Clinical Practice Guidelines in Oncology for Acute Myeloid Leukemia; available at https://www.nccn.org/professionals/physician_gls/PDF/aml.pdf); only intermediate- and poor-risk patients were eligible.
# At screening (post-IC/C induction chemotherapy/consolidation, when patients achieved complete remission (CR) or CR with incomplete blood count recovery (CRi), gene mutations were identified by targeted next-generation sequencing (ArcherDX VariantPlex Core Myeloid panel; 37 genes, ArcherDX, Boulder, CO) of DNA isolated from BMMCs. Gene mutational analyses and variants reported were based on the sequence coverages of the 37-gene AML panel. Mutation variants were filtered. Karyotypes from post-IC/C bone marrow samples were determined by MLL (Munich Leukemia Laboratory, Munich, Germany). […] defined as three or more cytogenetic abnormalities in the absence of a WHO designated recurring translocation or inversion; i.e., t(8;21)(q22;q22.1); t(9;11)(p21.3;q23.3); inv(3)(q21.3q26.2) or t(3;3)(q21.3;q26.2); t(6;9)(p23;q34.1); t(v;11;q23.3).
# When applicable, statistical analyses were performed using Prism Software (v.8.0.0; GraphPad Software, San Diego, CA) or R statistical computing software environment (v3.6.3). OS and RFS were estimated using Kaplan-Meier methods and P values were calculated using the log-rank test. Cox regression analyses were performed to evaluate the association of gene mutation status and treatment arm with OS and RFS. Gene mutation frequencies and landscape were visualized. Correlative analyses including single gene mutation and co-mutational queries were performed with clinical response. All possible pairings between genes and/or cytogenetic alterations were evaluated for tendency to co-occur or for mutual exclusivity; i.e., a pair of alterations occurring together more frequently or rarely than expected by their individual frequencies, as described by Papaemmanuil et al. (N Engl J Med, 2016). 2×2 contingency tables were generated to test putative associations using Fisher's exact tests and adjusted to control for multiple hypothesis testing. Significant differences between groups were assessed using statistical methods listed in the corresponding Figure footnotes. P-values were considered statistically significant at *p≤0.05, **p≤0.01, or ***p≤0.001.
# [2] = test system: DNA methylation; conditions: clinical studies; cited from earlier work
structure (smiles),measurement,setting,value
"Nc1ncn([C@@H]2O[C@H](CO)C(O)C2O)c(=O)n1 (stereo partly drawn) [CC-486, 4-amino-l-B-D-ribofuranosyl-1,3,5-triazin-2(1H)-one]",median OS,"[1]; DNMT3A mutation postIC/C, FIG. 18A, placebo 13.0, p=0.0003",24.8 months
same,median RFS,"[1]; DNMT3A mutation postIC/C, FIG. 18B, placebo 4.7, p<0.0001",18.4 months
same,median OS,"[1]; FIG. 6B (RFS figure), NPM1 mutation at diagnosis, placebo 6.9, p=0.0098",23.2 months
same,median OS,"[1]; FIG. 9B (RFS figure), FLTITD/FLT3-TKD mutation, placebo 4.6, p=0.0475",23.1 months
same,median OS,"[1]; FIG. 10B (RFS figure), NPM1 mutation and FLTITD WT, placebo 7.8, p=0.0572",21.1 months
same,median OS,"[1]; FIG. 10F (RFS figure), NPM1 WT and FLTITD mutation, placebo 4.0, p=0.9446",4.5 months
same,median OS,"[1]; FLTITD/FLT3-TKD mutation NPM1 WT, FIG. 13B, placebo 8.7, p=0.4105",11.8 months
same,"prolonged RFS, CC-486 vs placebo","[1]; FLTITD/FLT3-TKD mutation NPM1 WT, FIG. 13D",no statistical significance
same,median OS,"[1]; FLTITD/FLT3-TKD mutation at diagnosis, placebo 9.7, p=0.0797",28.2 months
same,median RFS,"[1]; FLTITD/FLT3-TKD wild type, placebo 4.9, p=0.0009",10.2 months
same,median OS,"[1]; FLTITD/FLT3-TKD wild type, placebo 15.2, p=0.0123",24.7 months
same,median OS,"[1]; NPM1 WT and FLTITD mutation, FIG. 10E, placebo 9.7, p=0.9207",9.2 months
same,median OS,"[1]; NPM1 mutation FLTITD WT, FIG. 10A, placebo 18.0, p=0.0802",47.1 months
same,median OS,"[1]; NPM1 mutation FLTITD/FLT3-TKD WT, FIG. 13A, placebo 20.2, p=0.0763",47.1 months
same,median RFS,"[1]; NPM1 mutation FLTITD/FLT3-TKD WT, FIG. 13C, placebo 7.7, p=0.0827",18.4 months
same,median OS,"[1]; NPM1 mutation FLTITD/FLT3-TKD mutation, FIG. 13A and 13B, placebo 13.4, p=0.0827",46.1 months
same,median RFS,"[1]; NPM1 mutation FLTITD/FLT3-TKD mutation, FIG. 13C and 13D, placebo 4.9, p=0.0278",46.1 months
same,median OS,"[1]; NPM1 mutation and FLTITD mutation, FIG. 10C, placebo 11.5, p=0.0488",49.3 months
same,median RFS,"[1]; NPM1 mutation and FLTITD mutation, FIG. 10D, placebo 4.6, p=0.0368",10.2 months
same,median OS,"[1]; NPM1 mutation and MRD negative status, FIG. 6C",47.2 months
same,median OS,"[1]; NPM1 mutation and MRD positive status, FIG. 6C",32.7 months
same,median RFS,"[1]; NPM1 mutation at diagnosis, FIG. 5C, vs NPM1 wild type p<0.0001",23.23 months
same,median OS,"[1]; NPM1 mutation at diagnosis, placebo 15.9, p=0.0138, vs NPM1 wild type p=0.0006",46.09 months and 46.1 months
same,median OS,"[1]; NPM1 wild type and MRD negative, FIG. 6C",24.6 months
same,median OS,"[1]; NPM1 wild type and MRD positive status, FIG. 6C",13.8 months
same,median RFS,"[1]; NPM1 wild type at diagnosis, placebo 4.6, p=0.0029",7.688 months and 7.7 months
same,median OS,"[1]; NPM1 wild type at diagnosis, placebo 14.6, p=0.0365",19.58 months and 19.6 months
same,"OS, CC-486 versus placebo",[1]; WT DNMT3A postIC/C,No differences
same,"RFS, CC-486 versus placebo",[1]; WT DNMT3A postIC/C,No differences
same,"OS, CC-486 versus placebo",[1]; WT p53 postIC/C,increases
same,"RFS, CC-486 versus placebo",[1]; WT p53 postIC/C,increases
same,"OS, CC-486 versus placebo","[1]; abnormal karyotype (>1 abnormality) postIC/C, FIG. 17C",no statistically significant differences
same,"RFS, CC-486 versus placebo","[1]; abnormal karyotype (>1 abnormality) postIC/C, FIG. 17D",no statistically significant differences
same,median RFS,"[1]; complex karyotype (≥4 abnormalities) postIC/C, vs normal karyotype p<0.0001",1.906 months
same,median OS,"[1]; complex karyotype (≥4 abnormalities) postIC/C, vs normal karyotype p=0.0003",6.932 months
same,median OS,"[1]; de novo AML, FIG. 1A, placebo 14.55, p=0.0068",23.23 months
same,median RFS,"[1]; de novo AML, FIG. 1B, placebo 4.90, p=0.0002",10.15 months
same,median RFS,"[1]; intermediate cytogenetic risk at diagnosis, placebo 5.8, p=0.0004",11 months
same,median OS,"[1]; intermediate cytogenetic risk at diagnosis, placebo 16, p=0.0093",25 months
same,"RFS, CC-486 versus placebo","[1]; mutations in SRSF2 alone postIC/C, FIG. 21A, p=0.0809",trend for improved RFS
same,median OS,"[1]; normal karyotype (no abnormalities) postIC/C, placebo 14.95, p=0.004, vs complex karyotype p=0.0003",25.10 months and 25.1 months
same,median RFS,"[1]; normal karyotype postIC/C, placebo 4.895, p<0.0001, vs complex karyotype p<0.0001",10.97 months
same,median OS,"[1]; other patients (lack NPM1 mutation in combination with FLTITD WT), FIG. 10A, placebo 14.6, p=0.0119",20.2 months
same,median RFS,"[1]; other patients, FIG. 10B, placebo 4.6, p=0.0006",7.9 months
same,median OS,"[1]; other patients, FIG. 10C, placebo 14.9, p=0.0080",24.7 months
same,median RFS,"[1]; other patients, FIG. 10D, placebo 4.1, p=0.0008",10.2 months
same,median OS,"[1]; other patients, FIG. 10E, placebo 14.9, p=0.0020",25.0 months
same,median RFS,"[1]; other patients, FIG. 10F, placebo 4.9, p<0.0001",10.2 months
same,"OS, CC-486 versus placebo","[1]; p53 mutation postIC/C, FIG. 18C",no statistically significant differences
same,median RFS,"[1]; p53 mutation postIC/C, FIG. 18D, placebo 3.5, p=0.0579",7.4 months
same,"differences in median OS or median RFS, normal versus abnormal karyotype","[1]; patients treated with CC-486, abnormal karyotype (1-3 abnormalities), FIG. 16",statistically significant differences
same,median RFS,"[1]; poor cytogenetic risk at diagnosis, placebo 3.7, p=0.0776",4.6 months
same,median OS,"[1]; poor cytogenetic risk at diagnosis, placebo 7.4, p=0.0602",14 months
same,median OS,"[1]; secondary AML, FIG. 1A, placebo 15.67, p=0.1072",28.19 months
same,median RFS,"[1]; secondary AML, FIG. 1B, placebo 2.45, p=0.0118",4.67 months
same,demethylative effects as compared to VIDAZA,[2],more sustainable demethylative effects

# Reference: patent US20240229156A1, “METHODS FOR USING A HYPOMETHYLATING AGENT TO TREAT DISEASES AND DISORDERS BASED ON GENE MUTATION PROFILES” (Celgene Corporation, priority 2021, published 2024)
